In US8063018B2, “Bivalent thrombin binding molecules comprising linkers” (National Research Council of Canada, priority 2004, dated 2011):

Target: thrombin (Homo sapiens, UniProt P00734)
Test: Fibrinogen clotting assay catalyzed by thrombin
Type: biochemical
Details: for IC50: concentration needed to double the clotting time
Experimental: Curves represent OD420 time course after the addition of 0.6 nM thrombin in the presence of (♦) 0 nM; (◯) 0.5 nM; (□) 1 nM; (Δ) 1.5 nM; (⋄) 2.5 nM; (●) 3.75 nM; (▪) 6.25 nM; and (▴) […] of the inhibitor with linker (GS)n and n=2 (SEQ. ID. NO. 50) (a); n=4 (SEQ. ID. NO. 51) (b); n=6 (SEQ. ID. NO. 52) (c); n=8 (SEQ. ID. NO. 53) (d); n=10 (SEQ. ID. NO. 54) (e); and in the presence of (♦) 0 nM; (◯) 1 nM; (□) 2 nM; (Δ) 4 nM; (⋄) 6 nM; (●) 10 nM; (▪) 15 nM; and (▴) 25 nM of the inhibitor with linker (GS)n and n=12 (SEQ. ID. NO. 55) (f); n=14 (SEQ. ID. NO. 56) (g), at 37° C. The onset clotting time was determined as an intersection of the baseline and the extrapolated linear portion of the OD change curve. […] Curves (i) represent OD420 time course in the presence of (A) 0 nM; (◯) 1 nM; (□) 2 nM; (Δ) 4 nM; (⋄) 6 nM; and (●) 15 nM of the inhibitor with linker […] (SEQ. ID. NO. 103), at 37° C. […] represent OD420 time course in the presence of (◯) 0 nM; (□) 2 nM; (Δ) 4 nM; (⋄) 6 nM; (●) 8 nM; (▪) 10 nM; (▴) 12 nM; and (♦) 15 nM; of the inhibitor with linker […] (SEQ. ID. NO. 58) at 25° C. Curves (k) represent OD420 time course in the presence of (◯) 0 nM; (□) 0.5 nM; (Δ) 1 nM; (⋄) 2 nM; (●) 3 nM; (▪) 4 nM; (▴) 5 nM; and (♦) 6 nM; of the inhibitor with linker […] (SEQ. ID. NO. 105) at 37° C. Curves (I) represent OD420 time course in the presence of (◯) 0 nM; (□) 0.25 nM; (Δ) 0.5 nM; (⋄) 1 nM; (●) 1.5 nM; (▪) 2 nM; and (▴) 2.5 nM; of the inhibitor with linker […] (SEQ. ID. NO. 104) at 37° C. Curves (m) represent OD420 time course in the presence of (◯) 0 nM; (□) 2 nM; (Δ) 4 nM; (⋄) 6 nM; (●) 8 nM; (▴) 10 nM; and (A) 12 nM; of the inhibitor with linker […] (SEQ. ID. NO. 106) at 37° C. Curves (n) represent OD420 time course in the presence of (◯) 0 nM; (□) 1 nM; (Δ) 2 nM; (⋄) 3 nM; (●) 4 nM; (▪) 5 nM; (▴) 6 nM; and (♦) 7 nM; of the inhibitor with linker […] (SEQ. ID. NO. 107) at 37° C. Curves (o) represent OD420 time course in the presence of (◯) 0 nM; (□) 4 nM; and (Δ) 8 nM; of the inhibitor with linker GQSHNR (SEQ. ID. NO. 108) at 37° C.
Other experimental conditions were as used for the assays described in FIG. 2.
Clotting assays were carried out by use of the protocols described previously (DiMaio and others, 1990, 21698-21703; Witting and others, 1992, 737-743). The assay employs bovine plasma fibrinogen dissolved at 0.1% in 50 mM Tris-Cl, 100 mM NaCl, 0.1% PEG-8000 at pH 7.6 (i.e. the clotting buffer). Each assay mixture contained a certain concentration of the peptide, and the reaction was started by the addition of human thrombin to a final concentration of 0.6-1.2 nM. Optical absorbance increase at 420 nm caused by fibrin clot formation was measured at 25° C. or 37° C. using the Spectramax plate reader. The onset clotting time was determined as an intersection of the baseline and the extrapolated linear portion of the OD change curve. The concentration of a peptide needed to double the clotting time was defined as IC50 (DiMaio and others, 1990, 21698-21703). Kinetic amidolytic curves were obtained in clotting buffer at 25° C. using eight inhibitor concentrations and three to five concentrations of the chromogenic substrate S-2238 (Chromogenix) (DiMaio and others, 1990, 21698-21703). Inhibition constants were extracted from Lineweaver-Burk equation by using weighted linear regression. Errors in Ki determination were estimated by using Monte-Carlo sampling with 1-3% variance of the experimental points.

| SMILES | IC50 (IC50, nM (37° C.), 37° C.) [nM] | Effect of SAP-SH2 on thrombin inhibition (25 nM inhibitor, 5 and 10 μM SAP-SH2, 25° C.) | IC50 (IC50, nM (25° C.), 25° C.) [nM] |
| --- | --- | --- | --- |
| CC[C@H](C)[C@H](NC(=O)[C@H](CCC(N)=O)NC(=O)[C@@H]1CCCN1C(=O)[C@H](CCCNC(=N)N)NC(=O)[C@@H]1CCCN1C(=O)[C@H](C)NC(=O)[C@H](Cc1c[nH]cn1)NC(=O)[C@H](CO)NC(=O)CNC(=O)[C@H]1CCCCN1C(=O)[C@H](CCCNC(=N)N)NS(=O)(=O)c1ccc(C(C)(C)C)cc1)C(=O)N[C@@H](Cc1c[nH]cn1)C(=O)N[C@@H](CC(N)=O)C(=O)N[C@@H](CC(=O)O)C(=O)NCC(=O)N[C@@H](CC(=O)O)C(=O)N[C@@H](Cc1ccccc1)C(=O)N[C@@H](CCC(=O)O)C(=O)N[C@@H](CCC(=O)O)C(=O)N[C@H](C(=O)N1CCC[C@H]1C(=O)N[C@@H](CCC(=O)O)C(=O)N[C@@H](CCC(=O)O)C(=O)N[C@@H](Cc1ccc(O)cc1)C(=O)N[C@@H](CC(C)C)C(=O)N[C@@H](CCC(N)=O)C(=O)O)[C@@H](C)CC [P3210] | 0.6 | – | – |
| CC[C@H](C)[C@H](NC(=O)[C@H](CCC(=O)O)NC(=O)[C@H](CCC(=O)O)NC(=O)[C@H](Cc1ccccc1)NC(=O)[C@H](CC(=O)O)NC(=O)CNC(=O)[C@@H](NC(=O)[C@H](CC(=O)O)NC(=O)CNC(=O)[C@H](C)NC(=O)[C@H](CCC(N)=O)NC(=O)[C@H](CCCCN)NC(=O)[C@H](C)NC(=O)CNC(=O)CNC(=O)[C@H](CC(C)C)NC(=O)[C@H](Cc1c[nH]cn1)NC(=O)[C@H](Cc1c[nH]cn1)NC(=O)CNC(=O)[C@H]1CCCCN1C(=O)[C@H](CCCNC(=N)N)NS(=O)(=O)c1ccc(C(C)(C)C)cc1)C(C)C)C(=O)N1CCC[C@H]1C(=O)N[C@@H](CCC(=O)O)C(=O)N[C@@H](CCC(=O)O)C(=O)N[C@@H](Cc1ccc(O)cc1)C(=O)N[C@@H](CC(C)C)C(=O)N[C@@H](CCC(N)=O)C(=O)O [P3234] | 3.9 ± 0.8 | – | – |
| CC[C@H](C)[C@H](NC(=O)[C@H](CCC(=O)O)NC(=O)[C@H](CCC(=O)O)NC(=O)[C@H](Cc1ccccc1)NC(=O)[C@H](CC(=O)O)NC(=O)CNC(=O)[C@H](CCCNC(=N)N)NC(=O)[C@H](CC(=O)O)NC(=O)[C@H](C)NC(=O)[C@H](CCCNC(=N)N)NC(=O)[C@H](CO)NC(=O)[C@H](CCC(=O)O)NC(=O)[C@H](CCSC)NC(=O)[C@H](Cc1ccc(O)cc1)NC(=O)CNC(=O)[C@H]1CCCCN1C(=O)[C@H](CCCNC(=N)N)NS(=O)(=O)c1ccc(C(C)(C)C)cc1)C(=O)N1CCC[C@H]1C(=O)N[C@@H](CCC(=O)O)C(=O)N[C@@H](CCC(=O)O)C(=O)N[C@@H](Cc1ccc(O)cc1)C(=O)N[C@@H](CC(C)C)C(=O)N[C@@H](CCC(N)=O)C(=O)O [P3236] | 1 ± 0.5 | – | – |
| CC[C@H](C)[C@H](NC(=O)[C@H](CCC(=O)O)NC(=O)[C@H](CCC(=O)O)NC(=O)[C@H](Cc1ccccc1)NC(=O)[C@H](CC(=O)O)NC(=O)CNC(=O)[C@H](CCCNC(=N)N)NC(=O)[C@H](CC(N)=O)NC(=O)[C@H](Cc1c[nH]cn1)NC(=O)[C@H](CO)NC(=O)[C@H](CCC(N)=O)NC(=O)CNC(=O)[C@H]1CCCCN1C(=O)[C@H](CCCNC(=N)N)NS(=O)(=O)c1ccc(C(C)(C)C)cc1)C(=O)N1CCC[C@H]1C(=O)N[C@@H](CCC(=O)O)C(=O)N[C@@H](CCC(=O)O)C(=O)N[C@@H](Cc1ccc(O)cc1)C(=O)N[C@@H](CC(C)C)C(=O)N[C@@H](CCC(N)=O)C(=O)O [P3238] | 2 ± 1 | – | – |
| CC[C@H](C)[C@H](NC(=O)[C@@H](NC(=O)[C@H](CC(C)C)NC(=O)[C@H](CO)NC(=O)[C@H](CCCCN)NC(=O)[C@H](CCCNC(=N)N)NC(=O)CNC(=O)[C@H]1CCCCN1C(=O)[C@H](CCCNC(=N)N)NS(=O)(=O)c1ccc(C(C)(C)C)cc1)[C@@H](C)O)C(=O)N[C@@H](Cc1ccc(O)cc1)C(=O)N[C@@H](C)C(=O)N[C@@H](CCC(N)=O)C(=O)N[C@H](C(=O)N[C@@H](CCC(N)=O)C(=O)N[C@@H](CCCCN)C(=O)NCC(=O)N[C@@H](CC(=O)O)C(=O)N[C@@H](Cc1ccccc1)C(=O)N[C@@H](CCC(=O)O)C(=O)N[C@@H](CCC(=O)O)C(=O)N[C@H](C(=O)N1CCC[C@H]1C(=O)N[C@@H](CCC(=O)O)C(=O)N[C@@H](CCC(=O)O)C(=O)N[C@@H](Cc1ccc(O)cc1)C(=O)N[C@@H](CC(C)C)C(=O)N[C@@H](CCC(N)=O)C(=O)O)[C@@H](C)CC)C(C)C [P3291] | – | reversal of thrombin inhibition | 7 ± 1 |
| CC[C@H](C)[C@H](NC(=O)[C@H](CCC(=O)O)NC(=O)[C@H](CCC(=O)O)NC(=O)[C@H](Cc1ccccc1)NC(=O)[C@H](CC(=O)O)NC(=O)CNC(=O)[C@H](CC(=O)O)NC(=O)[C@H](CC(N)=O)NC(=O)[C@H](Cc1c[nH]cn1)NC(=O)[C@H](CO)NC(=O)[C@H](CCC(N)=O)NC(=O)[C@@H]1CCCN1C(=O)[C@H](CCCCN)NC(=O)[C@@H]1CCCN1C(=O)[C@@H](NC(=O)CNC(=O)[C@H](CCC(=O)O)NC(=O)CNC(=O)[C@H](CC(=O)O)NC(=O)[C@@H](NC(=O)[C@H](Cc1ccccc1)NC(=O)[C@H](CCCNC(=N)N)NC(=O)[C@@H](N)C(C)C)[C@@H](C)O)[C@@H](C)O)C(=O)N1CCC[C@H]1C(=O)N[C@@H](CCC(=O)O)C(=O)N[C@@H](CCC(=O)O)C(=O)N[C@@H](Cc1ccc(O)cc1)C(=O)N[C@@H](CC(C)C)C(=O)N[C@@H](CCC(N)=O)C(=O)O [mini-hirudin 1] | 33 ± 3 | – | – |
| CC[C@H](C)[C@H](N)C(=O)N[C@@H](CCCNC(=N)N)C(=O)N[C@@H](Cc1ccccc1)C(=O)N[C@H](C(=O)N[C@@H](CC(=O)O)C(=O)NCC(=O)N[C@@H](CCC(=O)O)C(=O)NCC(=O)N[C@H](C(=O)N1CCC[C@H]1C(=O)N[C@@H](CC(N)=O)C(=O)N1CCC[C@H]1C(=O)N[C@@H](CCC(=O)O)C(=O)N[C@@H](CO)C(=O)N[C@@H](Cc1c[nH]cn1)C(=O)N[C@@H](CC(N)=O)C(=O)N[C@@H](CC(N)=O)C(=O)NCC(=O)N[C@@H](CC(=O)O)C(=O)N[C@@H](Cc1ccccc1)C(=O)N[C@@H](CCC(=O)O)C(=O)N[C@@H](CCC(=O)O)C(=O)N[C@H](C(=O)N1CCC[C@H]1C(=O)N[C@@H](CCC(=O)O)C(=O)N[C@@H](CCC(=O)O)C(=O)N[C@@H](Cc1ccc(O)cc1)C(=O)N[C@@H](CC(C)C)C(=O)N[C@@H](CCC(N)=O)C(=O)O)[C@@H](C)CC)[C@@H](C)O)[C@@H](C)O [mini-hirudin 2] | 14 ± 1 | – | – |
| CC[C@H](C)[C@H](N)C(=O)N[C@@H](CCCNC(=N)N)C(=O)N[C@@H](Cc1ccccc1)C(=O)N[C@H](C(=O)N[C@@H](CC(=O)O)C(=O)NCC(=O)N[C@@H](C)C(=O)N[C@@H](CCCCN)C(=O)N[C@H](C(=O)N[C@H](C(=O)N[C@@H](CCSC)C(=O)N[C@H](C(=O)N[C@@H](CS)C(=O)N[C@@H](CO)C(=O)N[C@@H](C)C(=O)N[C@@H](CO)C(=O)NCC(=O)N[C@@H](CC(=O)O)C(=O)N[C@@H](Cc1ccccc1)C(=O)N[C@@H](CCC(=O)O)C(=O)N[C@@H](CCC(=O)O)C(=O)N[C@H](C(=O)N1CCC[C@H]1C(=O)N[C@@H](CCC(=O)O)C(=O)N[C@@H](CCC(=O)O)C(=O)N[C@@H](Cc1ccc(O)cc1)C(=O)N[C@@H](CC(C)C)C(=O)N[C@@H](CCC(N)=O)C(=O)O)[C@@H](C)CC)[C@@H](C)O)[C@@H](C)O)C(C)C)[C@@H](C)O [mini-hirudin 3] | 10 ± 1 | – | – |
